Measurements from US8034556B2, “Regulation of glucose and insulin levels by GnT-4 glycosyltransferase activity” (The Regents of the University of California, priority 2004, dated 2011).

Assays:
[1] = Arginine tolerance test (serum insulin after L-arginine injection); assay type: in vivo; settings: wild-type and GnT-4a deficient mice, fasted 16 hr, i.p. 3 g/Kg
Experimental: Mice were fasted for 16 hr followed by intraperitoneal (i.p.) glucose injection (1.5 g/Kg body weight). Blood samples were obtained at 0, 30, 60, 120, and 240 min after the injection and measurements of glucose and insulin was determined, the latter using a rat insulin ELISA assay with a mouse insulin standard (Crystal Chem., Chicago, Ill.). In testing insulin tolerance, mice were injected i.p. with 2 U/kg body weight human insulin (Carbiochem, La Jolla, Calif.) followed by blood collection at 0, 30, 60 120, and 240 min after injection, and serum glucose levels were analyzed. In arginine tolerance tests, mice were fasted overnight for 16 hr followed by i.p. injection (3 g/Kg body weight) of L-arginine (Sigma, St. Louis, Mo.). Blood samples were analyzed at 0, 2, 5, 15, and 30 min after the injection.

[2] = system: islet cells; assay: In vitro islet cell glucose transport assay (2-NBDG uptake); assay type: cell-based, mouse; settings: for Km: Lineweaver-Burke plot, 5 min incubation
Experimental: Mouse islet cells were obtained as described (Josefsen et al., J. Endocrinology 14: 145-154, 1996). Briefly, the pancreatic duct was ligated distally and injected with 3 mg/ml collagenase (Sigma), 5 μg/ml DNase (Sigma) and 5.6 mM glucose in Hank's balanced salt solution (HBSS)). The pancreas was removed and incubated for 14 min at 37° C. with shaking (200 strokes/min). The suspension was passed through a 16 gauge needle, centrifuged and suspended in the bottom layer of a discontinuous Ficoll gradient (11%, 20%, 23%, and 25%). After 15 min of centrifugation at 800× gravity at room temperature, cells were recovered from the interfaces and washed in HBSS, followed by hand selection of the islet-enriched interface under a stereomicroscope. Islets were gently dispersed after three consecutive washes with HBSS, then exposed to 0.5 U/ml of dispase (Calbiochem) in HBSS for 3 min. This was followed by gentle repetitive pipeting and a final wash with HBSS. The cells were cultured in RPMI-1640 medium containing 10% FCS, 2 mM L-glutamine, 0.1 mM 2-mercaptoethanol, and 11 mM glucose.
Glucose transport into islet cells was measured using 2-[N-(7-nitrobenz-2-oxa-1,3-diazol-4-yl)amino]-2-deoxy-D-glucose (2-NBDG, Molecular Probes) as described (Yamada et al., J. Biol. Chem. 275: 22278-22283, 2000) Islet cells were incubated in glucose free-KRBH for 20 min at 37° C., and then with various concentrations of 2-NBDG. To measure the time course of 2-NBDG transport, islet cells were incubated with 500 μM of 2-NBDG in KRBH in the presence or absence of 10 mM D-glucose for the indicated times (FIG. 2K), then washed three times with glucose free-KRBH, and intracellular fluorescence (excitation 485-495 nm, emission 515-525 nm) was measured using a VersaFluor Fluorometer System (Bio-Rad, Hercules, Calif.). Concentration dependence was determined in same conditions except that cells were incubated with 100 μM, 200 μM, 400 μM, 800 μM, 1.6 mM, 3.2 mM, or 6.4 mM of 2-NBDG for 5 min.

| SMILES | Serum insulin concentrations after L-arginine treatment [1] | Km ([2]; Mgat4a null islet cells) [mM] | Vmax of 2-NBDG uptake ([2]; Mgat4a null islets) [nmol/5 min/0.5×10^5 cells] | Km ([2]; wild-type islet cells) [mM] | Vmax of 2-NBDG uptake ([2]; wild-type islets) [nmol/5 min/0.5×10^5 cells] |
| --- | --- | --- | --- | --- | --- |
| N=C(N)NCCC[C@H](N)C(=O)O [L-arginine] | robust increases in serum insulin concentrations |  |  |  |  |
| O=[N+]([O-])c1ccc(N[C@H]2C(O)O[C@H](CO)[C@@H](O)[C@@H]2O)c2nonc12 (stereo partly drawn) [2-NBDG, 2-[N-(7-nitrobenz-2-oxa-1,3-diazol-4-yl)amino]-2-deoxy-D-glucose] |  | 9.1 | 1.86 | 9.53 | 16.95 |
